The source made the active and inactive calls.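 Rule for the calls: active = plate Z score at or below -3, or inhibition of at least 30% at 20 µM; inactive = the rest.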
Test: compounds lowering EGFP fluorescence in F442A cells, dose response, counter-screen for p/CIP destabilizer project (AID 2005);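 note: cells express EGFP alone from a CMV promoter as a counter screen for p/CIP-EGFP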
Conditions: F442A EGFP cells, EGFP fluorescence, 16 h, stronger effect = higher value

SMILES | inhibition (EGFP decrease, at 10 µM) | inhibition (at 20 µM)
Cc1sc2nc(COC(=O)c3ccc(N4CCCC(C)C4)c([N+](=O)[O-])c3)[nH]c(=O)c2c1C (stereo unspecified) | 26.5% | 11.2% (inactive)
CCC1=C2CC[C@H]3C(=O)N(C)C(=O)[C@H]3[C@H]2[C@@]2(Cc3ccccc3)C(=NCCOC)OC(=O)N2C1=O | -6.2% | 13.4% (inactive)
Cc1onc(-c2ccccc2)c1C(=O)OCC(=O)Nc1cc(S(=O)(=O)N2CCOCC2)ccc1Cl | 13.9% | 19.6% (inactive)
Cc1ccccc1-c1cc2c(nn1)-c1ccccc1C2=O | 32.1% | 6.4% (inactive)
O=C(CN1CCC(n2nnc3cc(F)ccc32)CC1)NC1CC1 | -7.1% | -1.4% (inactive)
CCCc1sc(N/N=C/c2ccccn2)nc1-c1ccc(F)cc1 | 20.3% | 20.4% (inactive)
CC1(C)C(=O)Nc2ccccc2N1C(=O)COc1ncnc2c(Cl)cc(Cl)cc12 | 18.4% | 17.9% (inactive)
Cc1ccc2c(COC(=O)CNC(=O)c3ccccc3)cc(=O)oc2c1 | 5.9% | -2.9% (inactive)
Nc1ncnc2c1ncn2[C@H]1C[C@H](O)[C@@H](CO)O1 | 1.2% | 26.2% (inactive)
CCC1=[N+]([O-])C(C)(/C(C)=N\O)N(O)C1(C)C (stereo unspecified) | -2.6% | -11% (inactive)
Cc1noc(C)c1COC(=O)CNC(=O)c1cccc(F)c1 | 4% | -7.3% (inactive)
Cc1cccc(N(CC(=O)NCCc2ccccc2)C(=O)c2csnn2)c1 | 4.8% | 17.2% (inactive)
Cc1nc2ccccc2c(=O)n1-c1ccc(Cl)c(Cl)c1 | 12.7% | 12.7% (inactive)
O=C(Nc1ccc(N2CCOCC2)cc1N1CCOCC1)c1ccc(Br)cc1 | 32.7% | 19.4% (inactive)
CCOc1ccc(NC(=O)CSc2nc3ccccc3c(=O)n2CCNC(C)=O)cc1 | 13.6% | 15% (inactive)
COc1ccc(/C=C/C(=O)Nc2cccc(N3CCOCC3)c2)cc1OC | -4.5% | 6.7% (inactive)
Nc1cnn(C2OC(CO)C(O)C2O)c(=O)n1 (stereo unspecified) | 18.6% | 22.1% (inactive)
O=C(CSc1ccc(Cl)cc1)OCc1nnc(-c2ccccc2)o1 | 7.2% | 13.1% (inactive)
NC(=O)COC(=O)CSc1cccc2cccc(Cl)c12 | 24% | 10.6% (inactive)

SMILES | inhibition (EGFP decrease, at 10 µM) | inhibition (at 20 µM)
COc1cc(C2NCCC(=O)C2(C)C)cc(OC)c1OC (stereo unspecified) | -1.8% | 21.4% (inactive)
COc1ccccc1NC(=S)NNC(=O)c1ccc(Cl)cc1Cl | -23.9% | 2% (inactive)
COc1ccc(-c2cc(C(F)(F)F)nc(N3CCN(C)CC3)n2)cc1OC | 8.9% | 8% (inactive)
C=CCn1c(SCCN2C(=O)c3ccccc3C2=O)nc2scc(-c3ccccc3)c2c1=O | 30.3% | 0.6% (inactive)
CCOc1ccc(N(CC(=O)N2CCOCC2)S(=O)(=O)c2ccc(Cl)cc2)cc1 | 12.8% | 14.1% (inactive)
O=C(CSc1nnc(-c2ccccc2F)o1)OCc1ccccc1 | 15.7% | 39%
O=c1cc(O)c2c(=O)n(C3CCCCC3)c3ccccc3c2o1 | 2.1% | 4.6% (inactive)
CCNc1nc(C)c2cc(Br)c(=O)n(CC)c2n1 | 18.2% | 4.8% (inactive)
C[C@H]1CC[C@@H]2[C@@H](C)[C@H]3[C@H](C[C@H]4[C@@H]5CC=C6C[C@@H](O[C@@H]7O[C@H](CO)[C@H](O)[C@H](O[C@@H]8O[C@H](CO)[C@@H](O)[C@H](O)[C@H]8O)[C@H]7O[C@@H]7O[C@@H](C)[C@H](O)[C@@H](O)[C@H]7O)CC[C@]6(C)[C@H]5CC[C@]34C)N2C1 | 30.3% | -3% (inactive)
CCOC(=O)N1CCC(NC(=O)Cn2nc(-c3ccccc3)ccc2=O)CC1 | 1.1% | 24.5% (inactive)
CC(C)[C@H](NC(=O)c1ccc(F)cc1)C(=O)NC1=NCCS1 | 21.6% | 2.2% (inactive)
COC(=O)Cn1cc(C(=O)c2cccs2)c2ccccc21 | 27.1% | 14.5% (inactive)
Cn1c(NCc2ccco2)nc2c1c(=O)n(Cc1ccc(Cl)cc1)c(=O)n2C | 17.1% | 20.5% (inactive)
COc1ccc(CN(CC(=O)NCc2ccc(F)cc2)C(=O)CCC(=O)Nc2ccccn2)cc1 | -14.2% | 16.1% (inactive)
CN=Cc1sc2ccccc2c1O | 26.9% | 29.7% (inactive)
O=C(Nc1ccnn1C1CCN(Cc2ccccc2OC(F)F)CC1)c1cccc(F)c1 | 26.5% | 37.8%
Fc1ccc(NC(=S)NCc2cccnc2)cc1 | 28.3% | 8.7% (inactive)
CC(=O)c1ccc2c(c1)OCO2 | 5.1% | 25.1% (inactive)
CC(C(=O)NC1=NCCS1)N1C(=O)C2CC=CCC2C1=O (stereo unspecified) | 20.2% | 27.7% (inactive)

— PubChem BioAssay AID2005 (Sanford-Burnham Center for Chemical Genomics, 2009)
